pIC50: −log10 of the molar value. Where a name gives a salt, the structure may show the parent alone. Read-outs that look alike come from different tables or passages of the source.
Key:
Assay in all cases: Microculture tetrazolium assay
Format in all cases: cell-based
SKOV3 = tested on: SKOV3
SKVLB = settings: for VLB/OV3: IC50 ratio SKVLB/SKOV3; for pIC50: SKVLB
T47D = tested on: T47D
LOX = tested on: LOX
HT29 = tested on: HT29
[1] = Homo sapiens, SK-OV-3, SKOV3, read-out: IC50
[2] = Homo sapiens, HT-29, HT29, read-out: IC50

| SMILES | pIC50 (SKOV3; Homo sapiens, SK-OV-3, SKOV3) | VLB/OV3 (SKVLB) | pIC50 (SKVLB; read-out: IC50) | pIC50 (T47D; Homo sapiens, read-out: IC50) | pIC50 (LOX; read-out: IC50) | pIC50 (HT29; Homo sapiens, HT-29, HT29) | pIC50 (SKOV3; [1]) | pIC50 (HT29; [2]) | pIC50 (SKVLB) | pIC50 (SKOV3; SKOV3, read-out: IC50) | pIC50 (T47D; read-out: IC50) | pIC50 (HT29; HT29, read-out: IC50) | pIC50 (T47D; Homo sapiens) | pIC50 (LOX) |
| --- | --- | --- | --- | --- | --- | --- | --- | --- | --- | --- | --- | --- | --- | --- |
| C[C@@H]1O[C@@H](O[C@H]2OCCC3=C2C(=O)c2cc4ccccc4c(O)c2C3=O)C[C@H](NC(=O)C(F)(F)F)[C@@H]1O [BCH-1646] | 5.30 | 1.31 | 5.18 | 5.55 | 5.53 | 5.23 | – | – | – | – | – | – | – | – |
| C[C@@H]1O[C@@H](O[C@@H]2OCCC3=C2C(=O)c2cc4ccccc4c(O)c2C3=O)C[C@H](NC(=O)C(F)(F)F)[C@@H]1O [BCH-1647] | – | 1.67 | 5.22 | 6.06 | 5.49 | – | 5.44 | 5.60 | – | – | – | – | – | – |
| CCN(CC)C(=O)[C@H]1CC2=C(C(=O)c3cc4ccccc4c(O)c3C2=O)[C@H](O[C@H]2C[C@H](NC(=O)C(F)(F)F)[C@H](O)[C@H](C)O2)O1 [BCH-1653] | – | 1.85 | – | 5.15 | 5.41 | – | 5.49 | 6.05 | 5.22 | – | – | – | – | – |
| CCN(CC)C(=O)[C@@H]1CC2=C(C(=O)c3cc4ccccc4c(O)c3C2=O)[C@@H](O[C@H]2C[C@H](NC(=O)C(F)(F)F)[C@H](O)[C@H](C)O2)O1 [BCH-1656] | 5.39 | 1.72 | 5.15 | 5.28 | 5.41 | – | – | 5.42 | – | – | – | – | – | – |
| CC(=O)C1CC2=C(C(=O)c3cc4ccccc4c(O)c3C2=O)C(OC[C@@H]2COC(C)(C)O2)S1 (some centres unmarked) [BCH-1660] | – | 0.88 | 5.69 | 5.30 | 5.55 | – | 5.64 | 5.20 | – | – | – | – | – | – |
| CC(=O)C1CC2=C(C(=O)c3cc4ccccc4c(O)c3C2=O)C(OC[C@@H]2COC(C)(C)O2)O1 (some centres unmarked) [BCH-1661] | – | 0.94 | 5.58 | 5.29 | 5.44 | – | 5.55 | 5.52 | – | – | – | – | – | – |
| COC[C@@H]1CC2=C(C(=O)c3cc4ccccc4c(O)c3C2=O)[C@@H](O[C@H]2C[C@H](NC(=O)C(F)(F)F)[C@H](O)[C@H](C)O2)O1 [BCH-1694, (1'S,1R,3S)-5,12-dioxo-6-hydroxy-3-methoxymethyl-1-(2',3',6'-trideoxy-3'-trifluoroacetamido-L-lyxohexopyranose)-3,4,5,12-tetrahydroanthraceno-[2,3-C]pyran] | – | 3.19 | 5.02 | 5.35 | 5.45 | – | 5.52 | 5.37 | – | – | – | – | – | – |
| COC[C@@H]1CC2=C(C(=O)c3cc4ccccc4c(O)c3C2=O)[C@@H](O[C@H]2C[C@H](N)[C@H](O)[C@H](C)O2)O1 [BCH-1695, (1'S ,1R,3S)-5,12-dioxo-6-hydroxy-3-methoxymethyl-1-(2',3',6'trideoxy-3'-amino-L-lyxohexopyranose)-3,4,5,12-tetrahydroanthraceno-[2,3-c]pyran] | 5.24 | 4.46 | 4.59 | 4.89 | 5.28 | – | – | 4.83 | – | – | – | – | – | – |
| COC[C@H]1CC2=C(C(=O)c3cc4ccccc4c(O)c3C2=O)[C@H](O[C@H]2C[C@H](NC(=O)C(F)(F)F)[C@H](O)[C@H](C)O2)O1 [BCH-1696, (1'S,1S,3R)-5,12-dioxo-6-hydroxy-3-methoxymethyl-1-(2',3',6'-trideoxy-3'-trifluoroacetamido-L-lyxohexopyranose)-3,4,5,12-tetrahydroanthraceno-[2,3-C]pyran] | – | 2.46 | 5.57 | 5.92 | 5.96 | – | 5.96 | 6.08 | – | – | – | – | – | – |
| COCC1(COC)CC2=C(C(=O)c3cc4ccccc4c(O)c3C2=O)[C@H](O[C@H]2C[C@H](NC(=O)C(F)(F)F)[C@H](O)[C@H](C)O2)O1 [BCH-1698, (1'S,1S)-5,12-dioxo-6-hydroxy-3,3-bismethoxymethyl-1-(2',3',6'-trideoxy-3'-trifluoroacetamido-L-lyxohexopyranose)-3,4,5,12-tetrahydroanthraceno-[2,3-C]pyran] | – | 6.73 | 5.24 | 6.14 | 6.40 | – | 6.06 | 5.95 | – | – | – | – | – | – |
| CC(=O)[C@@H]1CC2=C(C(=O)c3cc4ccccc4c(O)c3C2=O)[C@@H](O[C@@H]2O[C@@H](C)[C@@H](O)[C@@H](O)C2I)O1 (some centres unmarked) [BCH-1990] | – | 2.64 | – | 5.41 | 5.52 | – | 5.68 | 5.96 | 5.26 | – | – | – | – | – |
| COCC1(COC)CC2=C(C(=O)c3cc4ccccc4c(O)c3C2=O)[C@H](O[C@H]2C[C@H](N)[C@H](O)[C@H](C)O2)O1 [BCH-1991, (1'S,1S)-5,12-dioxo-6-hydroxy-3,3-bis-methoxymethyl-1-(2',3',6'-trideoxy-3'-amino-L-lyxohexopyranose)-3,4,5,12-tetrahydroanthraceno-[2,3-c]-pyran hydrochloride] | – | 3.77 | – | 6.04 | 5.89 | – | 5.83 | 5.76 | 5.26 | – | – | – | – | – |
| CC(=O)[C@@H]1CC2=C(C(=O)c3cc4ccccc4c(O)c3C2=O)[C@H](OC[C@@H]2COC(C)(C)O2)S1 [BCH-1993] | – | 3.10 | 4.89 | – | 5.40 | – | – | – | – | 5.38 | 5.01 | 5.46 | – | – |
| CC(=O)[C@H]1CC2=C(C(=O)c3cc4ccccc4c(O)c3C2=O)[C@@H](OC[C@@H]2COC(C)(C)O2)S1 [BCH-1994] | – | 3.15 | 5.06 | – | 5.72 | – | – | – | – | 5.56 | 5.36 | 5.71 | – | – |
| C[C@@H]1O[C@@H](O[C@@H]2O[C@@H]([C@H](O)CO)CC3=C2C(=O)c2cc4ccccc4c(O)c2C3=O)C[C@H](NC(=O)C(F)(F)F)[C@@H]1O [BCH-1997] | – | 4.31 | 5.17 | 5.67 | 5.64 | – | 5.81 | 5.57 | – | – | – | – | – | – |
| CC(=O)[C@@H]1Cc2c(O)c3c(c(O)c2[C@@H](O[C@H]2O[C@H](CO)[C@@H](O)[C@H](O)[C@H]2NC(=O)N(CCCl)N=O)O1)C(=O)c1ccccc1C3=O [BCH-1999, (1'R, 1R,3S)-3-aceto-5,12-dihydroxy-1(2-deoxy-2-chloroethylnitrosoureido D-glucopyranose)-6,11-dioxo-3,4,6,11-tetrahydro-1H-anthra[2,3-c]pyran] | > 5.11 | – | – | – | – | 5.09 | – | – | 6.00 | – | – | – | 4.70 | 5.30 |
| C[C@@H]1O[C@@H](O[C@@H]2O[C@@H](S(=O)(=O)c3ccccc3)CC3=C2C(=O)c2cc4ccccc4c(O)c2C3=O)C[C@H](NC(=O)C(F)(F)F)[C@@H]1O [BCH-2001] | – | 1.90 | 5.24 | 5.59 | 5.60 | – | 5.51 | 5.86 | – | – | – | – | – | – |
| C[C@@H]1O[C@@H](O[C@@H]2OC=CC3=C2C(=O)c2cc4ccccc4c(O)c2C3=O)C[C@H](NC(=O)C(F)(F)F)[C@@H]1O [BCH-2002] | – | 2.88 | 5.45 | 5.84 | 5.76 | – | 5.91 | 6.01 | – | – | – | – | – | – |
| C=CC[C@H]1CC2=C(C(=O)c3cc4ccccc4c(O)c3C2=O)[C@H](O[C@H]2C[C@H](N)[C@H](O)[C@H](C)O2)O1 [BCH-2006, (1'S,1S,3S)-3-(6-hydroxy-1-(2',3',6'-trideoxy-3'-amino-4'-hydroxy-L-lyxohexopyranose)-5,12-dioxo-3,4,5,12-tetrahydroanthraceno-[2,3-c]pyran-3-yl)propene hydrochloride] | – | 4.23 | 5.43 | 5.72 | 6.32 | – | 6.05 | 6.39 | – | – | – | – | – | – |
| C[C@@H]1O[C@@H](O[C@H]2O[C@H](C#N)CC3=C2C(=O)c2cc4ccccc4c(O)c2C3=O)C[C@H](NC(=O)C(F)(F)F)[C@@H]1O [BCH-2007, (1'S,1R,3S)-3-(6-hydroxy-1-(2',3',6'-trideoxy-3'-trifluoroacetamido-4'-hydroxy-L-lyxohexopyranose)-5,12-dioxo-3,4,5,12-tetrahydroanthraceno-[2,3-c]pyran-3-yl)nitrile] | – | 6.44 | 5.55 | 6.30 | 6.42 | – | 6.36 | 6.83 | – | – | – | – | – | – |
